Laboratory results as given in patent publication US20220348543A1, “SALTS OF OMECAMTIV MECARBIL AND SOLID FORMS THEREOF” (SYNTHON B.V., priority 2019, published 2022).
Counter-ions that a name gives are not always drawn. Like-named read-outs stand apart in the source and are kept apart here.

Assays:
[1] = Solubility of Omecamtiv mecarbil salts in water solution (aqueous buffer) at different pH; type: physicochemical; conditions: USP / Ph. Eur. descriptive terms, read-out: Category of solubility (Descriptive Term)
Description: The solubility of prepared salts was tested in water solution at different pH (1.2, 4.5 and 6.8) and compared to Omecamtiv mecarbil dihydrochloride monohydrate salt prepared according to a procedure disclosed in WO2006009726 application.
It can be concluded that solubility of all prepared salt is better that the solubility of dihydrochloride monohydrate salt.

[2] = Stability at 25° C. of the solid isolated from salt crystallisation; type: physicochemical; conditions: crystallised from 2-butanone
Description: The preparation of Omecamtiv mecarbil methane sulfonic acid salt was tested also in following solvent: methanol, ethanol, isopropanol, 1-butanol, acetone and tetrahydrofurane. Solid obtainable from these solvents was not stable and it melted at a temperature 25° C. […] The solid Form M can be therefore used for purification of Omecamtiv mecarbil. The salt can be transformed into Omecamtiv mecarbil by contacting with a base (for example sodium hydrogen carbonate or potassium hydrogen carbonate or sodium carbonate or potassium carbonate or sodium hydroxide or potassium hydroxide) in a suitable solvent (for example an alcohol or acetone).
250 mg of Omecamtiv mecarbil was dissolved in a solvent (in Table below) at a temperature (in Table below). 40 μl methane sulfonic acid (1 eq. w.r.t. Omecamtiv mecarbil) was added. The mixture was cooled to 25° C. and stirred for 16 hours. If no solid appeared, mixture was then stirred at −15° C. Solid mass was filtered off and dried. The ratio between Omecamtiv mecarbil and the salt was determined by NMR as 1:2 (i.e. dimethane sulfonate salt).

solubility ([1]; aqueous buffer pH 4.5) [mg/mL] | solubility ([1]; aqueous buffer pH 6.8) [mg/mL] | solubility ([1]; simulated gastric fluid, aqueous buffer pH 1.2) [mg/mL] | stability of the crystalline solid [2] | SMILES
≥ 1000 | ≥ 1000 | ≥ 1000 |  | COC(=O)N1CCN(Cc2cccc(NC(=O)Nc3ccc(C)nc3)c2F)CC1 [Omecamtiv mecarbil p-toluene sulfonic acid salt]
 |  |  | form M, stable at 25° C., | COC(=O)N1CCN(Cc2cccc(NC(=O)Nc3ccc(C)nc3)c2F)CC1 [Salt with methane sulfonic acid, Form M, Omecamtiv mecarbil methane sulfonic acid salt]
